Source: patent publication US5015470A, “Cosmetic composition” (priority 1986, dated 1991)
Read-outs that look alike come from different tables or passages of the source.

How the values were obtained:
[1] = tested on: hair growth (clipped patch of skin, upper back of male rats); assay: Measurement of hair growth using the rat model (cumulative clipped hair weight, topical application); type: in vivo
Method: The effect of compounds on hair growth was assessed using male rats as an animal model as follows. In each of the comparisons reported below, 10 rats were used.
A small patch of normal skin (4cm ×4cm) on the upper back of each rat was clipped at the start of the experiment and a hair growth stimulant composition (or a control) applied twice daily topically to the clipped area. Hair was clipped from the area of the patch twice weekly, collected and weighed at each time point, and cumulative hair weight calculated. […] A positive response, ie. an increase of at least 10% by weight of hair, compared with a control, indicates the potential of the test substance to prevent hair loss and/or reverse baldness in human subjects.
In this example, the effect of topical application of D-glucaro-1,4-lactone, an inhibitor of β-glucuronidaseis shown. The test solution in this experiment contained approximately 7% (w/v) of the glucarolactone in the form of an equilibrium mixture prepared from boiled calcium glucarate. The vehicle was 33% (v/v) ethanol containing 50mM Na citrate at pH 4.2. Test or control solutions (0.3ml) were applied twice-daily to the clipped site; the hair growth results are shown below in Table 2.
This effect is illustrated in Table 3 below, in which the vehicle was 33% v/v ethanol in 50mM sodium citrate, pH4.2:
In a further experiment, glucarolactone was tested in the presence of an activity enhancer, 1-methylpyrrolidone. Again, a significant increase in hair weight was obtained, as shown below in Table 4, in which the vehicle was 33% v/v aqueous ethanol containing 50mM Na citrate buffer pH4.2 and 10% w/v 1-methylpyrrolidone. […]

[2] = tested on: hair growth (skin of shaved rabbits); settings: repeated injection into skin of shaved rabbits; cited from earlier work
β-glucuronidase [3] = biological target: T1, β-glucuronidase (Homo sapiens, UniProt P08236); assay: Inhibition of β-glucuronidase activity (nitrophenyl glucuronide substrate, method of Dingle); type: biochemical; settings: for inhibition of γ-glucuronidase activity (so in the source), in words: statement referring to experiments described later
T1 sequence (P08236 23-651): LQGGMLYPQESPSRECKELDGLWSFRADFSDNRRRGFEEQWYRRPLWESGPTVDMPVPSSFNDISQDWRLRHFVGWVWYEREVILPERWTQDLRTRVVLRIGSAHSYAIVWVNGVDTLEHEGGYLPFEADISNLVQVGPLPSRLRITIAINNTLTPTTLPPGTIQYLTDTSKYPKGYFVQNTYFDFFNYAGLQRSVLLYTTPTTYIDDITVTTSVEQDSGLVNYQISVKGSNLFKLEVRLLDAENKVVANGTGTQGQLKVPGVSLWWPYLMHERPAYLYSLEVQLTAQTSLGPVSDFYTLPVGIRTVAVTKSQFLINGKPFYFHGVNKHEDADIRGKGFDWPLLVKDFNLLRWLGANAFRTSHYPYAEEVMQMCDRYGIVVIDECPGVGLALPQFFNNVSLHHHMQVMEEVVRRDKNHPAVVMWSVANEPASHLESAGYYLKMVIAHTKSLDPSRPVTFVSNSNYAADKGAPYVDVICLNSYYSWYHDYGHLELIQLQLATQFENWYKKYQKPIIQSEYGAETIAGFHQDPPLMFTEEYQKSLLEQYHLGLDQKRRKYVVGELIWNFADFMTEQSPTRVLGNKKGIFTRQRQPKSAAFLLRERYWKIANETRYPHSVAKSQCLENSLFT
Method: In each of the assays referred to herein, the chemical inhibitor was tested at a pH close to the optimum pH value of the relevant enzyme, and under conditions of saturating substrate concentration, to ensure that Vmax was obtained in the controls. […] The activity of each of these four exoglycosidases was measured using a method described in "Lysosomes, A Laboratory Handbook", edited by […]., Second Edition, (1977) at page 118. […] [Ibid., page 118] as described herein. […] [Ibid., page 118]. The results when the acid or the lactone were incubated with a mixture of this enzyme and the nitrophenyl glucuronide substrate were as follow: […]

[4] = cited from earlier work
hair growth = settings: 1% solution, daily application for six months; cited from earlier work
α-glucuronidase = settings: Levvy and Snaith (1972); cited from earlier work
β-glucuronidase [5] = biological target: T1, β-glucuronidase; settings: Levvy and Snaith (1972); cited from earlier work
[6] = Table 3, 7% glucarolactone, 0.2% minoxidil, or both, 45 days
[7] = Table 3, 7% glucarolactone, 0.2% minoxidil, or both, vehicle 33% v/v ethanol in 50mM sodium citrate, pH4.2, vehicle control 427.2 ± 58.7
[8] = read-out: percentage inhibition of a 1mM concentration, 1 mM, worked out from 1.03 or 1.14 mM

For O=C(O)[C@@H](O)[C@H]1OC(=O)[C@H](O)[C@H]1O [glucarolactone, D-glucaro-1,4-lactone], the “stimulation of hair growth (increase)” value ([1]; 7% glucarolactone vs vehicle, Table 2) was 13%, the “increase in hair growth” value ([1]; 7% glucarolactone with 0.1% w/v Triton X-100, 43 days (Table 5)) was 39% and the “increase in hair growth” value ([1]; 7% glucarolactone with 10% w/v 1-methylpyrrolidone, 46 days (Table 4)) was 15%. The “Mean Cumulative hair weight (mg) ± sd, after 45 days” value ([1]; Table 2, approx. 7% (w/v), 0.3 ml twice daily, vehicle 33% (v/v) ethanol, 50mM Na citrate pH 4.2, vehicle control 427.2 ± 58.7) was 482.7 ± 58.4 mg, the “Increase in hair growth (%) (Test vs control)” value [1, 6] was 13% and the “Mean Cumulative hair weight (mg) ± sd, after 45 days” value [1, 7] was 482.7 ± 58.4 mg. For the same molecule, the “Mean Cumulative Hair Weight (mg) ± sd, after 46 days” value ([1]; Table 4, 7%, vehicle 33% v/v aqueous ethanol, 50mM Na citrate pH4.2, 10% w/v 1-methylpyrrolidone, vehicle control 611.1 ± 48.1) was 706.2 ± 86.6 mg, the “Mean Cumulative Hair Weight (mg) ± sd, after 43 days” value ([1]; Table 5, 7%, vehicle 20% v/v ethanol, 50mM sodium citrate pH4.2, 0.1% w/v Triton X-100, vehicle control 412.3 ± 57.5) was 573.3 ± 82.5 mg and the “effect on hair growth in combination with a low concentration of minoxidil” value ([1]; result in words) was “synergistic effect on hair growth in combination with a low concentration of minoxidil”. The “effect on onset of anagen / hair cycle” value ([1]; result in words) was “consistently found to advance the onset of anagen, thus reducing the amount of time spent in the resting stage of hair cycle”.
In the case of heparan sulphate, the “initiation of the hair growth cycle with stimulation of hair growth, in words” value (“initiation of the hair growth cycle” for short) [2] is given as “particularly active”.
In the case of zinc gluconate, the “increase in hair growth” value ([1]; 2% (w/v) zinc gluconate, 45 days (Table 6)) is reported as 16% and the “Mean Cumulative hair weight (mg) ± sd, after 45 days” value ([1]; Table 6, 2% (w/v), vehicle 20% aqueous ethanol, vehicle control 397.8 ± 56.3) is reported as 460.9 ± 45.7 mg.
For O=C[C@H](O)[C@H]1OC(=O)[C@@H](O)[C@H]1O [glucurono-6,3-lactone, D-Glucurono-6,3-lactone], the inhibition at 200 µg/mL (β-glucuronidase [3]; 0.2 mg/ml (1.14 mM)) was 51%, the “enzyme inhibition in words (weak inhibitor)” value (“enzyme inhibition in words” below) (β-glucuronidase [3]; 1 mM, β-glucuronidase) was “weak enzyme inhibitors” and the inhibition at 1000 µM (β-glucuronidase [3]; [8]) was 44.7%. For the same molecule, the “inhibition of γ-glucuronidase activity (so in the source), in words” value (β-glucuronidase [3]) was “weak inhibitors”.
For Nc1cc(N2CCCCC2)nc(N)[n+]1[O-] [minoxidil, reference compound], the “side effects of orally administered minoxidil” value ([4]; oral) is given as “fluid retention, tachycardia, dyspnea, gynecomastia, fatigue, nausea and cardiotoxicity”, the “side effects following topical application” value ([4]; topical) is given as “certain side effects have been experienced following topical application of minoxidil” and the inhibition at 50 µg/mL (β-glucuronidase [3]; 0.05 mg/ml (0.24 mM)) is given as 2%. For the same molecule, the inhibition at 400 µg/mL (β-glucuronidase [3]; 0.4 mg/ml (1.9 mM)) was 12%, the inhibition at 800 µg/mL (β-glucuronidase [3]; 0.8 mg/ml (3.8 mM)) was 23% and the “enzyme inhibition in words” value (β-glucuronidase [3]; 1 mM, β-glucuronidase) was “weak enzyme inhibitor”. The inhibition at 1000 µM (β-glucuronidase [3]; 1 mM, β-glucuronidase, read-out: enzyme inhibition in words (weak inhibitor)) was 5 to 50%, the inhibition at 1000 µM (β-glucuronidase [3]; read-out: percent inhibition of a 1mM concentration) was 6% and the “increase in hair growth” value ([1]; 2% (w/v) minoxidil vs vehicle, 45 days) was 55%. The “Mean Cumulative hair weight (mg) ± sd, after 45 days” value ([1]; Table 1, 2% (w/v) topical twice daily, vehicle 70% ethanol, 20% water, 10% propylene glycol, vehicle control 387.3 ± 75.9) was 599.2 ± 85.1 mg, the “Increase in hair growth (%) (Test vs control)” value [1, 6] was 9% and the “Mean Cumulative hair weight (mg) ± sd, after 45 days” value [1, 7] was 465.8 ± 48.8 mg.
In the case of chondroitin-6-sulphate, the “initiation of the hair growth cycle” value [2] is listed as “also active in this respect, but to a lesser extent”.
For O=C[C@H](O)[C@@H](O)[C@H](O)[C@H](O)C(=O)O [glucuronic acid, D-glucuronic acid], the “regrowth of hair, in words” value (hair growth) is listed as “regrowth of hair”, the inhibition at 200 µg/mL (β-glucuronidase [3]; 0.2 mg/ml (1.03 mM)) is listed as 20% and the “enzyme inhibition in words” value (β-glucuronidase [3]; 1 mM, β-glucuronidase) is listed as “weak enzyme inhibitors”. For the same molecule, the inhibition at 1000 µM (β-glucuronidase [3]; [8]) was 19.4%, the “inhibition of γ-glucuronidase activity (so in the source), in words” value (β-glucuronidase [3]) was “weak inhibitors” and the “inhibition of α-glucuronidase, in words” value (α-glucuronidase) was “feebly inhibited”. The “inhibition of β-glucuronidase, in words” value (β-glucuronidase [5]) was “feebly inhibited”.
In the case of dermatan sulphate, the “initiation of the hair growth cycle” value [2] is listed as “also active in this respect, but to a lesser extent”.
